Laboratory results as given in patent publication US8119362B2, “Method of screening for compounds that can be used for the treatment of respiratory conditions” (Centre National de la Recherche Scientifique—Cnrs, priority 2007, dated 2012).

Target: T1, human TASK-2 channel (Homo sapiens, UniProt O95279)
T1 construct: expressed in transfected cells; host or cells: HEK cells (Human Embryonic Kidney cells)
T1 sequence (O95279 1-499): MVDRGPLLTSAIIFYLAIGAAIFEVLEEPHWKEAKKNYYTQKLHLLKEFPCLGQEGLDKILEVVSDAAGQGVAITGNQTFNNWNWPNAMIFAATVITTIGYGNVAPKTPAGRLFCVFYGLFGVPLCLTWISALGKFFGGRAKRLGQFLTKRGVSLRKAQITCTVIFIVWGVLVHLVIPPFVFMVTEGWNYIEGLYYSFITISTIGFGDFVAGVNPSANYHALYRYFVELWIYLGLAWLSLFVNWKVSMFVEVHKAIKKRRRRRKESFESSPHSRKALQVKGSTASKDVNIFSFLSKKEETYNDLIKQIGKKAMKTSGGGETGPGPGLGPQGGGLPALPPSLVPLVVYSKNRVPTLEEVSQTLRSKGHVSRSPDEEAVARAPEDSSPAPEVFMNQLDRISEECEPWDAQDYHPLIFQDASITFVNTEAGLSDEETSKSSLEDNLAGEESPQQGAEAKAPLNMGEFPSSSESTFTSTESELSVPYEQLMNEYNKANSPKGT
Assay: Patch-clamp (whole cell) recording of TASK-2 current in transfected HEK cells
Assay type: cell-based
Conditions: Doxapram at 0.9 mM in the external bath; HEK cells transfected with human TASK-2 (pIRES-CD8-hTASK2); voltage jumps; FIG. 4
Protocol: The following screening is used. HEK cells (Human Embryonic Kidney cells) are transfected with a plasmid containing complementary DNA from the gene of the human TASK-2 channel (pIRES-CD8-hTASK2) by the lipofectamine method. After 24 hours of culture, the TASK-2 currents are recorded using the voltage-clamp method (patch-clamp in whole cell configuration). The currents are activated by jumps in voltage from a rest potential at […] to variable values ranging from −80 to +45 mV.
The currents are recorded in whole cell configuration using an EPC-10 amplifier (HEKA). The <> pipette contains a solution of 95 K-gluconate, 30 mM KCl, 4.8 mM Na2HPO4, 1.2 mM NaH2PO4, 5 mM glucose, 2.38 mM MgCl2, 0.726 mM CaCl2, 1 mM EGTA, 3 mM ATP, pH 7.2. The external solution is a RINGER solution: 145 mM NaCl, 0.4 mM KH2PO4, 1.6 mM K2HPO4, 5 mM glucose, 1 mM MgCl2, 1.3 mM CaCl2, 5 mM HEPES, pH 7.4.
Different drugs may be applied at different concentrations by perfusion of the external bath and their effects are evaluated by the change in the currents compared with the control conditions.

SMILES: CCN1CC(CCN2CCOCC2)C(c2ccccc2)(c2ccccc2)C1=O (stereo not shown) [Doxapram]
- reduction of the TASK-2 current: 25%
